Molecular target: T1, LPA1 (Homo sapiens, UniProt Q92633)
T1 construct: ProLink (PK) beta-galactosidase enzyme-fragment tag; host or cells: CHO-K1
Experiment: LPA1 calcium flux assay (LPA1 functional antagonist assay)
Format: cell-based
Settings: PathHunter CHO-K1 EDG2 β-Arrestin cell line; calcium indicator dye; stimulated with EC80 concentration of LPA; FLIPR Tetra
Description: Following overnight culture, cells were loaded with calcium indicator dye from the HitHunter Calcium No WashPLUS Assay kit (Eurofins DiscoverX Corporation, Cat #93-0091) for 45 minutes at 37° C. […] After compound addition, assay plates were equilibrated to room temperature for 30 minutes. […] IC50 values were determined by Chemical and Biological Information System from ChemInnovation Software, Inc. The compounds of this invention were tested for their activity to inhibit LPA1 as determined in an LPA1 functional antagonist assay as described herein.

T1 sequence (Q92633 whole entry, the tested form may be a part): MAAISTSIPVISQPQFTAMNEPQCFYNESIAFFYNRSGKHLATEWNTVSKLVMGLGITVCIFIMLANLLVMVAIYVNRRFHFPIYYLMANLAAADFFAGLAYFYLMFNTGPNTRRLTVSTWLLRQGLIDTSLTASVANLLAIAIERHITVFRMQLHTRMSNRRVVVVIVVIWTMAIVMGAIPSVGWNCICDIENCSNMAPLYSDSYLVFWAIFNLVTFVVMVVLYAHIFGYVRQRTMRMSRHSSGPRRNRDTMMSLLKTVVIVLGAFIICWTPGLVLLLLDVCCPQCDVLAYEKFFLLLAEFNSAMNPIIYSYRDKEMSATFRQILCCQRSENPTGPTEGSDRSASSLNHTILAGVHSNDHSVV

For CCc1nc(-c2nnn(C)c2COc2ncnn2CC2CC2)ccc1N1C[C@@H](CC(=O)O)CC(F)(F)C1 [Example 122, (S)-2-(1-(6-(5-(((1-(cyclopropylmethyl)-1H-1,2,4-triazol-5-yl)oxy)methyl)-1-methyl-1H-1,2,3-triazol-4-yl)-2-ethylpyridin-3-yl)-5,5-difluoropiperidin-3-yl)acetic acid], which IC50 is on record?
The IC50 was 100 to 500 nM.

How did the IC50 turn out when CCCc1ccc(=O)n(Cc2c(-c3ccc(CN4CC(C(=O)O)CC(F)(F)C4)c(CC)n3)nnn2C)c1 (single isomer, unassigned) [Example 149, (S) or (R)-1-((2-ethyl-6-(1-methyl-5-((2-oxo-5-propylpyridin-1(2H)-yl)methyl)-1H-1,2,3-triazol-4-yl)pyridin-3-yl)methyl)-5,5-difluoropiperidine-3-carboxylic acid] was run?
The IC50 was 100 to 500 nM.

For CCCN(C)C(=O)OCc1c(-c2ccc(CN3CCOC(C(=O)O)C3)c(C)n2)nnn1C (centres unmarked) [Example 166, 4-((2-methyl-6-(1-methyl-5-(((methyl (propyl)carbamoyl)oxy)methyl)-1H-1,2,3-triazol-4-yl)pyridin-3-yl)methyl)morpholine-2-carboxylic acid], which IC50 is on record?
The IC50 was greater than 5000 nM.

Which IC50 does the source give for CCCc1ccc(=O)n(Cc2c(-c3ccc(N4CCC[C@H](CC(=O)O)C4)c(CC)n3)cnn2C)c1 [Example 42, (R)-2-(1-(2-ethyl-6-(1-methyl-5-((2-oxo-5-propylpyridin-1(2H)-yl)methyl)-1H-pyrazol-4-yl)pyridin-3-yl)piperidin-3-yl)acetic acid] here?
The IC50 was 500 to 5000 nM.

For CCCc1cn(Cc2c(-c3ccc(N4C[C@@H](CC(=O)O)CC(F)(F)C4)c(CC)n3)nnn2C)c(=O)cn1 [Example 29, (S)-2-(1-(2-ethyl-6-(1-methyl-5-((2-oxo-5-propylpyrazin-1(2H)-yl)methyl)-1H-1,2,3-triazol-4-yl)pyridin-3-yl)-5,5-difluoropiperidin-3-yl)acetic acid], which IC50 is on record?
Its IC50 is 100 to 500 nM.

For CCc1nc(-c2nnn(C)c2COc2nccc(-n3cccn3)n2)ccc1N1CCC[C@H](CC(=O)O)C1 [Example 101, (R)-2-(1-(6-(5-(((4-(1H-pyrazol-1-yl)pyrimidin-2-yl)oxy)methyl)-1-methyl-1H-1,2,3-triazol-4-yl)-2-ethylpyridin-3-yl)piperidin-3-yl)acetic acid], which IC50 is on record?
Its IC50 is less than 100 nM.

For CCc1nc(-c2nnn(C)c2COc2cc(C3CCC3)ncn2)ccc1N1CCC[C@H](CC(=O)O)C1 [Example 80, (R)-2-(1-(6-(5-(((6-cyclobutylpyrimidin-4-yl)oxy)methyl)-1-methyl-1H-1,2,3-triazol-4-yl)-2-ethylpyridin-3-yl)piperidin-3-yl)acetic acid], which IC50 is on record?
The IC50 was less than 100 nM.

CCc1nc(-c2nnn(C)c2COc2nccc(C3CCC3)n2)ccc1N1CCOC(CC(=O)O)C1 (centres unmarked) [Example 171, 2-(4-(6-(5-(((4-cyclobutylpyrimidin-2-yl)oxy)methyl)-1-methyl-1H-1,2,3-triazol-4-yl)-2-ethylpyridin-3-yl)morpholin-2-yl)acetic acid] was tested. Which IC50 did it give?
Its IC50 is less than 100 nM.

How did the IC50 turn out when CCc1nc(-c2nnn(C)c2COC(=O)N(C)CC2CC2)ccc1N1C[C@@H](CC(=O)O)CC(F)(F)C1 [Example 141, (S)-2-(1-(6-(5-((((cyclopropylmethyl)(methyl)carbamoyl)oxy)methyl)-1-methyl-1H-1,2,3-triazol-4-yl)-2-ethylpyridin-3-yl)-5,5-difluoropiperidin-3-yl)acetic acid] was run?
Its IC50 is 100 to 500 nM.

Which IC50 does the source give for CCCc1ccc(=O)n(Cc2c(-c3ccc(N4C[C@H](CC(=O)O)CC(F)(F)C4)c(CC)n3)nnn2C)c1 [Example 7, (R)-2-(1-(2-ethyl-6-(1-methyl-5-((2-oxo-5-propylpyridin-1(2H)-yl)methyl)-1H-1,2,3-triazol-4-yl)pyridin-3-yl)-5,5-difluoropiperidin-3-yl)acetic acid] here?
Its IC50 is 500 to 5000 nM.

With CCc1nc(-c2nnn(C)c2COc2cnn(CC3CC3)n2)ccc1N1C[C@@H](CC(=O)O)CC(F)(F)C1 [Example 127] as the compound, how does the IC50 read?
The IC50 was 100 to 500 nM.

How did the IC50 turn out when CCc1nc(-c2cnn(C)c2Cn2cc(CC3CC3)nn2)ncc1N1C[C@@H](CC(=O)O)CC(F)(F)C1 [Example 135, (S)-2-(1-(2-(5-((4-(cyclopropylmethyl)-1H-1,2,3-triazol-1-yl)methyl)-1-methyl-1H-pyrazol-4-yl)-4-ethylpyrimidin-5-yl)-5,5-difluoropiperidin-3-yl)acetic acid] was run?
Its IC50 is greater than 5000 nM.

CCc1nc(-c2nnn(C)c2CNc2noc(C3CC3)n2)ccc1N1CC(CC(=O)O)CC(F)(F)C1 (stereo in doubt) [Example 115, (R)-2-(1-(6-(5-(((5-cyclopropyl-1,2,4-oxadiazol-3-yl)amino)methyl)-1-methyl-1H-1,2,3-triazol-4-yl)-2-ethylpyridin-3-yl)-5,5-difluoropiperidin-3-yl)acetic acid] was tested. Which IC50 did it give?
The IC50 was greater than 5000 nM.

For CCCc1cnn(Cc2c(-c3ccc(CN4CC(C(=O)O)CC(F)(F)C4)c(C)n3)nnn2C)c(=O)c1 (single isomer, unassigned) [Example 159, (R) or (S)-5,5-difluoro-1-((2-methyl-6-(1-methyl-5-((6-oxo-4-propylpyridazin-1(6H)-yl)methyl)-1H-1,2,3-triazol-4-yl)pyridin-3-yl)methyl)piperidine-3-carboxylic acid], which IC50 is on record?
Its IC50 is greater than 5000 nM.

Which IC50 does the source give for CCCc1ccc(=O)n(Cc2c(-c3ccc(N4C[C@@H](CC(=O)O)CC(F)(F)C4)c(CC)n3)nnn2C)c1 [Example 6, (S)-2-(1-(2-ethyl-6-(1-methyl-5-((2-oxo-5-propylpyridin-1(2H)-yl)methyl)-1 H-1,2,3-triazol-4-yl)pyridin-3-yl)-5,5-difluoropiperidin-3-yl)acetic acid] here?
The IC50 was less than 100 nM.

CCc1nc(-c2nnn(C)c2Cn2nnnc2CC2CC2)ccc1N1C[C@@H](CC(=O)O)CC(F)(F)C1 [Example 138, 2-[(3S)-1-[6-(5-{[5-(cyclopropylmethyl)-1H-1,2,3,4-tetrazol-1-yl]methyl}-1-methyl-1H-1,2,3-triazol-4-yl)-2-ethylpyridin-3-yl]-5,5-difluoropiperidin-3-yl]acetic acid] was tested. Which IC50 did it give?
The IC50 was 100 to 500 nM.

CCc1nc(-c2nnn(C)c2Cn2cc(CC(C)C)ccc2=O)ccc1CN1CC(C(=O)O)CC(F)(F)C1 (single isomer, unassigned) [Example 154, (S) or (R)-1-((2-ethyl-6-(5-((5-isobutyl-2-oxopyridin-1(2H)-yl)methyl)-1-methyl-1H-1,2,3-triazol-4-yl)pyridin-3-yl)methyl)-5,5-difluoropiperidine-3-carboxylic acid] was tested. Which IC50 did it give?
Its IC50 is 100 to 500 nM.

How did the IC50 turn out when Cc1nc(-c2nnn(C)c2COC(=O)N(C)C2CCC2)ccc1N1C[C@@H](CC(=O)O)CC(F)(F)C1 [Example 142, (S)-2-(1-(6-(5-(((cyclobutyl(methyl)carbamoyl)oxy)methyl)-1-methyl-1H-1,2,3-triazol-4-yl)-2-methylpyridin-3-yl)-5,5-difluoropiperidin-3-yl)acetic acid] was run?
Its IC50 is 100 to 500 nM.

How did the IC50 turn out when Cn1nnc(-c2ccc(N3CCC[C@H](CC(=O)O)C3)c(C(F)F)n2)c1Cn1cc(CC2CC2)nn1 [Example 169, (R)-2-(1-(6-(5-((4-(cyclopropylmethyl)-1H-1,2,3-triazol-1-yl)methyl)-1-methyl-1H-1,2,3-triazol-4-yl)-2-(difluoromethyl)pyridin-3-yl)piperidin-3-yl)acetic acid] was run?
Its IC50 is 100 to 500 nM.

How did the IC50 turn out when CCc1nc(-c2nnn(C)c2Cn2ccc(CC3CC3)c(C)c2=O)ccc1N1C[C@H](CC(=O)O)CC(F)(F)C1 [Example 11, (R)-2-(1-(6-(5-((4-(cyclopropylmethyl)-3-methyl-2-oxopyridin-1(2H)-yl)methyl)-1-methyl-1H-1,2,3-triazol-4-yl)-2-ethylpyridin-3-yl)-5,5-difluoropiperidin-3-yl)acetic acid] was run?
Its IC50 is greater than 5000 nM.

From patent US12780800B1, “Triazole-pyridinyl substituted azacyclohexyl acetic acid compounds as LPA receptor antagonists” (Viva Star Biosciences Limited, priority 2021, dated 2022)
